Experimental data reported in patent US20120316210A1, “TOPICAL ANTIPARASITIC FORMULATIONS” (priority 2010, published 2012).
Where two headings read alike, the source gives them in different places.

Key:
[1] = pKa of demiditraz; type: physicochemical; settings: weak base
Description: (§1) […] is also a weak base due to the presence of the imidazole ring. […] An acid modifier (or mixtures thereof) was added to the formulation in a molar equivalent relative to the amount of demiditraz to adjust the pH below 7.5 and reduce or eliminate the nucleophilic reaction between fipronil and demiditraz. The acid modifier includes both weak and strong acids. The weak acids include sugar acids (glyceric, gluconic, ascorbic, tartaric, and the like), carboxylic acid derivatives (mono-, di-, and tri-chloro acetic acid, and mono-, di-, and tri-fluoro acetic acid, benzoic, and the like) and mono-, di-, and tri-carboxylic acids. Non-exclusive examples of monocarboxylic acids include formic, acetic, propionic, butyric, oleic, valeric, caproic, enanthic, caprylic, linoleic, chloroacetic, dichloroacetic, oxalic, benzoic, pelargonic, capric, lauric, myristic, palmitic, stearic, and arachidic acid. Non-exclusive examples of di-carboxylic acids include oxalic, malonic, succinic, fumaric, aldaric, tartaric, glutaric, adipic, maleic, malic, pimelic, suberic, azelaic, sebacic, phthalic, isophtalic, and terephthalic acid. Non-exclusive examples of tri-carboxylic acids include citric, isocitric, aconitic, propane-1,2,3-tricarboxylic, and trimesic acid.

[2] = type: physicochemical
Description: as §1
The addition of the weak acid in the formulation lowered the apparent pH of the formulation to about 6.5 to 7.5, however, fipronil degraded initially by about 5-6% followed by slower degradation to about 10-15% during an accelerated (70°) kinetic study. Strong acids (pka≦2) were added to the formulation to both lower apparent pH to about 2.5 to about 3.5 and to protonate demiditraz to prevent it from potentially acting as a nucleophile against fipronil. Non-exclusive examples of strong acids include inorganic acids (e.g., HCl, HBr, HI, HF, nitric acid, phosphoric acid, boric acid, sulfuric acid, and the like). Other strong acids include sulfonic acid and sulfonic acid derivatives thereof. Non-exclusive examples of sulfonic acid derivatives include methane-, ethane-, p-toluenesulfonic (p-TSA), and dodecylbenzenesulfonic acid. The use of a strong acid, e.g., p-TSA, increased fipronil stability, however, degradation was still about 5% after 12 weeks at 50° C.
The initial instability of fipronil was reduced to about ≦1% during an accelerated (70° C.) 1-week stability study for DPGMME with a strong acid and for NMP with a strong or weak acid.

[3] = type: physicochemical; remark: listed apart in the source
Description: as §1

pKa [1] | SMILES | Fipronil initial degradation [2] | Fipronil slower degradation following the initial one [2] | Fipronil stability when formulated with demiditraz [2] | Fipronil degradation ([2]; 1 week) | Initial instability of fipronil ([2]; 1 week) [%] | Fipronil degradation ([2]; 12 weeks) | pH levels at which fipronil degrades rapidly [3]
7.2 | Cc1cccc([C@H](C)c2ncc[nH]2)c1C [Demiditraz, demiditraz] | – | – | – | – | – | – | –
– | N#Cc1nn(-c2c(Cl)cc(C(F)(F)F)cc2Cl)c(N)c1[S+]([O-])C(F)(F)F (centres unmarked) [fipronil] | 5-6% | 10-15% | unstable | 3-6% | ≤ 1 | about 5% | above 7.5
